Laboratory results from US20250074892A1, “CARBONYL BRIDGED HETEROCYCLIC COMPOUND, AND COMPOSITION AND APPLICATION THEREOF” (BEIJING SCITECH-MQ PHARMACEUTICALS LIMITED, priority 2022, published 2025).
Where two headings read alike, the source gives them in different places.

Experiment: Mouse PK&BBB (pharmacokinetics and brain penetration)
Type: in vivo, CD-1 mice
Procedure: In this assay, the pharmacokinetic characteristics and ability to penetrate the blood-brain barrier of the compounds of the present application were assayed after administration of some of the compounds of the present application to SD rats, CD-1 mice or beagle dogs by single oral administration and intravenous injection.
1. Intravenous (IV) injection group: an appropriate amount of the assay compound was weighed, and completely dissolved in an appropriate volume of vehicle. The mixture was stirred, vortexed and/or sonicated. Once a solution was obtained, the vehicle was gradually added to a final volume to reach the target concentration. The solution was vortexed, and sonicated to obtain a homogeneous solution. The solution was filtered through a […] PVDF membrane.
2. Oral (PO) group: an appropriate amount of the assay compound was weighed, and completely dissolved in an appropriate volume of vehicle. The mixture was stirred, vortexed and/or sonicated. Once a solution was obtained, the vehicle was gradually added to a final volume to reach the target concentration. The solution was vortexed, and sonicated to obtain a homogeneous solution.
Meanwhile, the IV group was not fasted and the PO group was fasted overnight (>12 hrs) and given food 2 hrs after drug administration. All animals had free access to water. The dosing regimen and pharmacokinetic sampling regimen are given in Table 10 and Table 11 below, respectively.
Mice were administered according to the above protocol, and blood and brain tissue samples were collected and processed at predetermined time points (collection and processing were performed according to conventional methods in the art).
The brain was weighed and homogenized by adding 4 times of ultrapure water. Six times volume of acetonitrile was added respectively to the whole blood samples and brain homogenate (20 times volume of acetonitrile was added to the whole blood sample of mouse PK). The mixture was vortexed for 1 min and then centrifuged at 4° C., 4500 rpm for 15 min. According to the instrument response, the supernatant was diluted with diluent and the sample was analyzed by LC/MS.
Pharmacokinetic parameters were calculated using WinNonlin software. The following pharmacokinetic parameters were calculated if appropriate plasma/whole blood drug concentration-time data were available: CL (clearance); Vd (apparent volume of distribution); T1/2 (elimination half-life time); Cmax (peak concentration); Tmax (time to peak); AUC (area under plasma drug concentration-time curve); MRT (mean retention time); F % (bioavailability).

[1] = CD-1, mouse, whole blood, iv, 2 mg/kg, IV 2 mg/kg, read-out: Blood drug concentration
[2] = CD-1, mouse, whole blood, po, 20 mg/kg, PO 20 mg/kg, read-out: Blood drug concentration

## O=C(C1CCN(c2cc(-c3cc(OCCCO)ccc3F)ccn2)CC1)N1N=CC[C@H]1c1cc(F)cc(F)c1 (racemic) [Example 40]
CD-1, brain / whole blood, PO 20 mg/kg, 2 h after administration, read-out: Brain/blood ratio
  Kp at 2 h: 1.85
CD-1, mouse, brain, po, 20 mg/kg, PO 20 mg/kg, 2 h after administration, read-out: Brain concentration
  concentration at 2 h: 244 ng/g
[1]
  concentration at 0 h: 0 ng/mL
  concentration at 0.25 h: 323 ± 81 ng/mL
  concentration at 0.5 h: 150 ± 53 ng/mL
  concentration at 1 h: 60.7 ± 28.5 ng/mL
  concentration at 4 h: 1.77 ± 1.12 ng/mL
  concentration at 7 hr: 0.854 ng/mL
CD-1, mouse, whole blood, iv, 2 mg/kg, IV 2 mg/kg, 0.083 hr, read-out: Blood drug concentration
  concentration at 0.083 h: 632 ± 86 ng/mL
CD-1, mouse, whole blood, iv, 2 mg/kg, IV 2 mg/kg, 2 hr, read-out: Blood drug concentration
  concentration at 2 h: 12.3 ± 8.4 ng/mL
[2]
  concentration at 0 h: 0 ng/mL
  concentration at 0.25 h: 284 ± 26 ng/mL
  concentration at 0.5 h: 405 ± 46 ng/mL
  concentration at 1 h: 399 ± 77 ng/mL
  concentration at 4 h: 34.9 ± 19 ng/mL
  concentration at 7 hr: 4.85 ± 3.83 ng/mL
CD-1, mouse, whole blood, po, 20 mg/kg, PO 20 mg/kg, 2 hr, read-out: Blood drug concentration
  concentration at 2 h: 163 ± 2 ng/mL
CD-1, mouse, whole blood, po, 20 mg/kg, PO 20 mg/kg, whole blood, 2 h after administration, read-out: Blood drug concentration
  concentration at 2 h: 132 ng/mL
CD-1, whole blood, IV 2 mg/kg
  AUC(0-inf): 308 ± 82 ng·h/mL
  AUC(0-t): 307 ± 82 ng·h/mL
  Vd: 6.97 ± 1.13 L/kg
  half-life: 45.3 ± 17.9 min
CD-1, whole blood, IV 2 mg/kg, read-out: Cl—obs
  clearance: 114 ± 30.5 mL/min/kg
CD-1, whole blood, PO 20 mg/kg
  AUC(0-inf): 869 ± 57 ng·h/mL
  AUC(0-t): 861 ± 54 ng·h/mL
  Cmax: 421 ± 64 ng/mL
  Tmax: 50 ± 17.3 min
  half-life: 58 ± 12.5 min
CD-1, whole blood, PO 20 mg/kg vs IV 2 mg/kg
  bioavailability: 28.2 ± 1.9%
